Measured values: patent EP0253650A2, “Improvements relating to benzothiophene derivatives” (ELI LILLY AND COMPANY, priority 1986, dated 1988)

Tested on: guinea pigs
Experiment: Antigen induced anaphylaxis in guinea pigs (ovalbumin aerosol challenge of sensitized animals)
Format: in vivo
Settings: percent inhibition of anaphylaxis (severity index vs placebo), two hours prior to aerosol challenge
Experimental: Following the general procedure taught by Andersson, Brit. J. Pharmacol., 69, 467 (1980), mixed sex Hartley strain guinea pigs (250-300 g) were sensitized to ovalbumin by a single injection of 1 mcg of ovalbumin mixed with 50 mg of aluminum hydroxide per animal. These animals were used 21 to 26 days later for aerosol challenge with ovalbumin.
Anaphylaxis was induced by exposure to an aerosol of 10 mg of ovalbumin per milliliter of water for 10 minutes delivered by a Tri-R venturi nebulizer, particle size 2 to 5 micron diameter, at a delivery rate of 0.4 ml of solution per minute. The guinea pigs were placed in specially constructed chamber for exposure to the aerosol. The aerosol was introduced from the bottom of the chamber and exhausted at the top. A baffle above the chamber inlet port provided even distribution of the aerosol throughout the chamber. The animals were supported above the inlet on a wire mesh disc. The chamber was under slight negative pressure to enhance the exhaust of the aerosol which was passed through a calcium chloride trap followed by a super-cooled condenser trap.
Groups of five guinea pigs were treated with the compounds of this invention, clinical anti-asthmatic agents, or placebo (vehicle only) two hours prior to the aerosol challenge. All the animals also received 3 mg/kg pyrillamine orally two hours prior to the aerosol challenge in order to blunt the histamine component of the anaphylaxis. The compounds were administered orally as a suspension in 10% acacia or intraperitoneally in 10% acacia.
The number of animals that responded to the aerosol challenge for each of the above parameters as well as the time for the response to occur were recorded. The data were analyzed by comparing the severity index (the sum of the number of animals that coughed, collapsed, and/or died) between the treated and placebo group of guinea pigs. Thus, the maximum severity index for each group of five guinea pigs is 15. On the average, the severity index for the placebo group was 10-12. The percent inhibition of anaphylaxis was determined by the following formula: [formula] where Sd is the severity index for the drug treated animals and Sp is the severity index of the placebo treated animals.

For `CCOc1cc2cc(C(=O)N(CC)CC)sc2cc1OCC` [Example 3, N,N-Diethyl-5,6-diethoxybenzo[b]thiophene-2-carboxamide], the “Percent Inhibition” value (dose 10 mg/kg, I.P.) was 44%, the “Percent Inhibition” value (dose 30 mg/kg, I.P.) was 89% and the “Percent Inhibition” value (dose 50 mg/kg, I.P.) was 82%. For the same compound, the “Percent Inhibition” value (dose 50 mg/kg, P.O.) was 38%.

With `CCOc1cc2cc(C(=O)Nc3nnn[nH]3)sc2cc1OCC` [Example 4, 5,6-Diethoxy-N-1H-tetrazol-5-ylbenzo[b]thiophene-2-carboxamide] the “Percent Inhibition” value (dose 50 mg/kg, P.O.) was 56%.

With `CCOc1cc2cc(C#N)sc2cc1OCC` [Example 5, 5,6-Diethoxybenzo[b]thiophene-2-carbonitrile] the “Percent Inhibition” value (dose 30 mg/kg, I.P.) was 69%, the “Percent Inhibition” value (dose 50 mg/kg, I.P.) was 74-84% and the “Percent Inhibition” value (dose 50 mg/kg, P.O.) was 22%.

With `CCOc1cc2cc(-c3nnn[nH]3)sc2cc1OCC` [Example 6, 5-(5,6-Diethoxybenzo[b]thien-2-yl)-1H-tetrazole] the “Percent Inhibition” value (dose 50 mg/kg, P.O.) was 43%.

`CCOc1cc2cc(CO)sc2cc1OCC` [Example 7, 5,6-Diethoxybenzo[b]thiophene-2-methanol] was tested, and the “Percent Inhibition” value (dose 30 mg/kg, I.P.) was 89%, the “Percent Inhibition” value (dose 50 mg/kg, I.P.) was 74% and the “Percent Inhibition” value (dose 50 mg/kg, P.O.) was 68%.
